Experimental findings from patent publication US20240426776A1, “RAPID DIFFERENTIATION OF ANTIBIOTIC-SUSCEPTIBLE AND -RESISTANT BACTERIA THROUGH MEDIATED EXTRACELLULAR ELECTRON TRANSFER” (priority 2021, published 2024) are described below.

SMILES strings stand for the structures. Marks after values point to notes of the source that are not given here.

This test concerns Gram-negative 1 AR55 and Gram-negative 2 AR58. The test can be described thus: READAS operator blinded test. Conditions: for ASIn: imipenem increased from 2× to 20× (12 to 120 μg/mL), OD600=0.1; for READAS susceptibility (first symbol of cell): imipenem up to 20× (120 μg/mL). The format is cell-based. The procedure:
Tests were conducted for which the species or resistance phenotype was not known beyond the fact that one set was a Gram-positive and the other Gram-negative, and the antibiotics to be tested were oxacillin and imipenem, respectively. The isolates were provided as coded streak plates. Because the species were unknown, the breakpoint concentration of oxacillin and imipenem were estimated from the known breakpoints of the four previously tested strains (as shown in Table 1; 6 μg/mL for oxacillin, S. aureus and 6 μg/mL imipenem for Gram-negative strains). Following the decision methodology for determining antibiotic susceptibility and resistance of READAS, the strains were first tested with 2× the resistance breakpoint concentration (12 μg/mL oxacillin or imipenem) and the ASI2 was measured. This was increased up to 24× the resistance breakpoint concentration. If ASI2≥0.4 then the strain was considered susceptible. […] If neither strain achieved an ASI2≥0.4, 24× the resistance breakpoint concentration was tested and the ASI24 was measured.
As another example method of operation, operator blinded tests were conducted using susceptible and resistant strains of Gram-positive and -negative bacteria. Because the species identification was unknown, […] oxacillin was chosen as the estimated resistance breakpoint for the Gram-positive strain and 6 μg/mL imipenem was initially chosen as the resistance breakpoint for the Gram-negative strain. The stains selected for this example method of operation include Gram-positive 1 ATCC 29213, Gram-positive 2 BAA-1026, Gram-negative 1 AR55 and Gram-negative 2 AR58 with cultures of OD600=0.1, for simplicity.
Both Gram-positive strains were correctly classified using 2×(12 μg/mL oxacillin) in <120 min (97±45 min and 103±33 min). The Gram-negative strains were also correctly classified after increasing concentrations of imipenem from 2× to 20×(12 to 120 μg/mL imipenem). […] These phenotypic results were confirmed with results of standard procedure known to those skilled in the art and are included in Table 4 below, wherein READAS(S) susceptibility was defined by an ASIn≥0.4; (R) resistant was defined by an ASIn<0.4; analysis time shown in minutes. The standard procedure established susceptibility or resistance, MIC in μg/mL, and analysis time shown in hours.

With `C[C@@H](O)[C@H]1C(=O)N2C(C(=O)O)=C(SCCN=CN)C[C@H]12` [Imipenem, imipenem], for the setting “Gram-negative 1 (AR55)”, the ASIn is 0.1 ± 0.23^c and the “READAS susceptibility (first symbol of cell)” value was “R/R ((R) resistant was defined by an ASIn<0.4)”. For the same compound, under “Gram-negative 2 (AR58)”, the ASIn was 0.99 ± 0.01^c and the “READAS susceptibility (first symbol of cell)” value is “S/S (READAS(S) susceptibility was defined by an ASIn≥0.4)”.
